Columns and labels:
Format in all cases: physicochemical
[1] = Study 1 equilibration study: aerodynamic particle size distribution analysis (FPF and FPD) after 6 week equilibration
Procedure: (§1) Two batches of fluticasone/salmeterol housed within a Spiromax® device were prepared. […] Each batch was divided into two and equilibrated for six weeks under the conditions specified by each protocol. Protocol 1: 30° C./65% RH (unwrapped) Protocol 2: 40° C. […] Two batches of fluticasone/salmeterol housed within a Spiromax® device were prepared. Combination batches of fluticasone propionate and salmeterol xinafoate were selected at two different strengths, as in study 1. Each batch was divided into two and equilibrated for six weeks under the conditions specified by each protocol. Protocol 1: 30° C./65% RH (unwrapped) Protocol 3: 40° C.

[2] = Study 2 equilibration study: aerodynamic particle size distribution analysis (FPF and FPD) during 6 week equilibration
Procedure: as §1

[3] = Study 3 eight week in-use stability study: aerodynamic particle size distribution (FPF and FPD); conditions: eight week in-use at 30° C./65% RH (unwrapped) after equilibration by protocol 2
Procedure: (§2) Following inhaler equilibration according to protocol 2 (six weeks at 40° C./75% RH wrapped in foil with desiccant), eight-week stability tests of fluticasone propionate and salmeterol xinafoate (25 μg/25 μg and 100 μg/25 μg) were conducted. The in-use stability testing was conducted at 30° C./65% RH (unwrapped) as per discussion with the FDA. […] Following inhaler equilibration according to protocol 3 (six weeks at 40° C. wrapped in foil with desiccant), six-month stability tests of fluticasone propionate and salmeterol xinafoate (25 μg/25 μg and 100 μg/25 μg) were conducted. The stability of the formulations was assessed following storage under two different condition sets.

[4] = Study 4 six month stability study: aerodynamic particle size distribution (FPF and FPD)
Procedure: as §2

[5] = Study 1, batch 25/25 μg Fp/Sx in Spiromax, 30° C./65% RH (unwrapped)
[6] = Study 1, batch 25/25 μg, 40° C. (wrapped in foil with desiccant)
[7] = Study 1, batch 100/25 μg, 30° C./65% RH (unwrapped)
[8] = Study 1, batch 100/25 μg, 40° C. (wrapped in foil with desiccant)
[9] = Study 2, batch 25/25 μg, 30° C./65% RH (unwrapped)
[10] = Study 2, batch 25/25 μg, 40° C. (wrapped in foil with desiccant)
[11] = Study 2, batch 100/25 μg, 30° C./65% RH (unwrapped)
[12] = Study 2, batch 100/25 μg, 40° C. (wrapped in foil with desiccant)
[13] = Study 4, batch 25/25, six month storage at 25° C./60% RH (wrapped) after equilibration by protocol 3
[14] = Study 4, batch 25/25, six month storage at 40° C. (wrapped) after equilibration by protocol 3
[15] = Study 4, batch 100/25, six month storage at 25° C./60% RH (wrapped) after equilibration by protocol 3
[16] = Study 4, batch 100/25, six month storage at 40° C. (wrapped) after equilibration by protocol 3

Aerodynamic particle size distribution (% change from base) FPD [1, 5] [%] | Aerodynamic particle size distribution (% change from base) FPF [1, 5] [%] | Aerodynamic particle size distribution (% change from base) FPD [1, 6] [%] | Aerodynamic particle size distribution (% change from base) FPF [1, 6] [%] | Aerodynamic particle size distribution (% change from base) FPD [1, 7] [%] | Aerodynamic particle size distribution (% change from base) FPF [1, 7] [%] | Aerodynamic particle size distribution (% change from base) FPD [1, 8] [%] | Aerodynamic particle size distribution (% change from base) FPF [1, 8] [%] | Aerodynamic particle size distribution (% change from base) FPD [2, 9] [%] | Aerodynamic particle size distribution (% change from base) FPF [2, 9] [%] | Aerodynamic particle size distribution (% change from base) FPD [2, 10] [%] | Aerodynamic particle size distribution (% change from base) FPF [2, 10] [%] | Aerodynamic particle size distribution (% change from base) FPD [2, 11] [%] | Aerodynamic particle size distribution (% change from base) FPF [2, 11] [%] | Aerodynamic particle size distribution (% change from base) FPD [2, 12] [%] | Aerodynamic particle size distribution (% change from base) FPF [2, 12] [%] | Aerodynamic particle size distribution (% change from base) FPD ([3]; Study 3, batch 25/25 μg) [%] | Aerodynamic particle size distribution (% change from base) FPF ([3]; Study 3, batch 25/25 μg) [%] | Aerodynamic particle size distribution (% change from base) FPD ([3]; Study 3, batch 100/25 μg) [%] | Aerodynamic particle size distribution (% change from base) FPF ([3]; Study 3, batch 100/25 μg) [%] | SMILES | other results
−16 | −19 | −13 | −12 | −13 | −12 | −17 | −14 | −19 | −16 | −13 | −12 | −12 | −12 | −16 | −14 | −10 | −9 | 0 | 0 | CCC(=O)O[C@]1(C(=O)SCF)[C@H](C)C[C@H]2[C@@H]3C[C@H](F)C4=CC(=O)C=C[C@]4(C)[C@@]3(F)[C@@H](O)C[C@@]21C [Fp, fluticasone propionate] | Aerodynamic particle size distribution (% change from base) FPD [4, 13]: −4%; Aerodynamic particle size distribution (% change from base) FPF [4, 13]: 0%; Aerodynamic particle size distribution (% change from base) FPD [4, 14]: −9%; Aerodynamic particle size distribution (% change from base) FPF [4, 14]: −6%; Aerodynamic particle size distribution (% change from base) FPD [4, 15]: 0%; Aerodynamic particle size distribution (% change from base) FPF [4, 15]: 0%; Aerodynamic particle size distribution (% change from base) FPD [4, 16]: −8%; Aerodynamic particle size distribution (% change from base) FPF [4, 16]: −6%
−20 | −19 | −2 | −2 | −9 | −10 | 0 | 0 | −20 | −18 | −2 | −2 | −9 | −10 | 0 | 0 | −17 | −14 | −4 | −3 | OCc1cc(C(O)CNCCCCCCOCCCCc2ccccc2)ccc1O (centres unmarked) [Sx, salmeterol xinafoate] | Aerodynamic particle size distribution (% change from base) FPD [4, 13]: −5%; Aerodynamic particle size distribution (% change from base) FPF [4, 13]: 0%; Aerodynamic particle size distribution (% change from base) FPD [4, 14]: −9%; Aerodynamic particle size distribution (% change from base) FPF [4, 14]: −4%; Aerodynamic particle size distribution (% change from base) FPD [4, 15]: −3%; Aerodynamic particle size distribution (% change from base) FPF [4, 15]: −1%; Aerodynamic particle size distribution (% change from base) FPD [4, 16]: −13%; Aerodynamic particle size distribution (% change from base) FPF [4, 16]: −9%
